Assay results reported in US20220364065A1, “COMPOSITION FOR REMOVING PLURIPOTENT STEM CELLS AND METHOD OF REMOVING PLURIPOTENT STEM CELLS” (NATIONAL UNIVERSITY CORPORATION HOKKAIDO UNIVERSITY, priority 2018, published 2022).

Experiments:
[1] = system: NT2: human embryonal carcinoma (EC) cells; experiment: MTT assay, viability of NT2 cells; format: cell-based; conditions: 10 μM BRQ, 3 days
Method: One thousand cells were seeded into each well of a 96-well plate and cultured for 3 days in medium (200 μL/well) supplemented with only DMSO at a final concentration of 0.1% or in medium (200 μL/well) supplemented with each dihydroorotate dehydrogenase (DHODH) inhibitor. The medium used was the appropriate culture solution for each cell as described above.
The concentration of each DHODH inhibitor added to the medium was a 2-fold dilution series starting from 200 μM.
As a background, a well containing medium only was prepared, and as a control, a well was also prepared in which medium containing Triton X-100 (final concentration 0.2%) was added to the cells.
Then, 5 μL of MTT (5 mg/ml, manufactured by Wako) was added to each well, and the cells were incubated at 37° C. for 2 to 3 hours. Then, the medium was replaced with 100 μL of DMSO to lyse the cells, and the absorbance of these cell lysates at a wavelength of 570 nm was measured with a microplate reader (manufactured by Bio-Rad, Benchmark model). In addition, based on the obtained absorbance, the cell viability was calculated by the following formula.
Cell viability (%)=(absorbance in wells with DHODH inhibitor-absorbance in background)/(absorbance in control-absorbance in background)×100. […]

[2] = system: mouse neural stem cells and mouse ES cells; experiment: Mixed culture of neural stem cells and ES cells, Nestin/Nanog immunostaining; format: cell-based; conditions: 10 μM BRQ, 3 days
Method: (§1) The cells were fixed and immunostained as described in Kondo et al., Genes Dev. 2004, Vol. 18, Issue 23, pp. 2963-72. […] For the culture of mNSCs, PDL+fibronectin-coated ones were used (see Johe KK et al., Genes Dev. 1996, Vol. 10, Issue 24, pp. 3129 to 3140). For the culture of ES cells and iPS cells, gelatin-coated ones were used.
(§2) For immunostaining, the cells were first washed once with PBS, then fixed by adding 4% paraformaldehyde and incubating for 10 minutes at room temperature. The cells were replaced with PBS containing 0.3% Triton X100 and incubated for 5 minutes at room temperature, then replaced with PBS containing 0.3% Triton X100 and 10% FCS (blocking solution) and incubated for 30 minutes at room temperature. The solution was replaced with primary antibody solution diluted in blocking solution and incubated for 2 hours at room temperature. After washing three times with PBS, secondary antibody and DAPI solution diluted with blocking solution were added and incubated at room temperature for 2 hours. After washing three times with PBS, the cells were sealed with anti-fading agent (manufactured by DAKO, code number: 53023) and observed under a microscope. […] In addition, fluorescence images were acquired with an Axiolmager M1 microscope (manufactured by Carl Zeiss).
The cells were then analyzed by immunostaining as described above.

mouse ES cells [3] = experiment: Immunostaining of pluripotent stem cell markers (Sox2, Nanog, Oct4), ES cells; format: cell-based
Method: (§3) The cells were fixed and immunostained as described in Kondo et al., Genes Dev. […] For the culture of ES cells and iPS cells, gelatin-coated ones were used.
(§4) For immunostaining, the cells were first washed once with PBS, then fixed by adding 4% paraformaldehyde and incubating for 10 minutes at room temperature. The cells were replaced with PBS containing 0.3% Triton X100 and incubated for 5 minutes at room temperature, then replaced with PBS containing 0.3% Triton X100 and 10% FCS (blocking solution) and incubated for 30 minutes at room temperature. The solution was replaced with primary antibody solution diluted in blocking solution and incubated for 2 hours at room temperature. After washing three times with PBS, secondary antibody and DAPI solution diluted with blocking solution were added and incubated at room temperature for 2 hours. […] Note that the cell nuclei were visualized by contrast staining with DAPI solution (1 μg/mL, manufactured by Dojindo, product code: D523). In addition, fluorescence images were acquired with an Axiolmager M1 microscope (manufactured by Carl Zeiss).
(§5) LMB is a specific inhibitor of CRM1, also known as Exportin 1.

mouse iPS cells [4] = experiment: Immunostaining of pluripotent stem cell markers (Sox2, Nanog, Oct4), iPS cells; format: cell-based
Method: as §3, §4, §5

mouse neural stem cells = experiment: Sox2 immunostaining, neural stem cells; format: cell-based; conditions: 10 μM BRQ, 24 hours
Method: as §1
as §2, with “Zeiss). […]” for “Zeiss).”

mouse iPS cells [5] = experiment: Quantitative RT-PCR of Sox2, Oct4, Nanog, iPS cells; format: cell-based; conditions: 10 μM BRQ, 2 days
Method: First, total RNA was prepared from cells using the RNeasy kit (manufactured by Qiagen), and cDNA was synthesized using the Transcriptor First Strand cDNA Synthesis Kit (manufactured by Roche Applied Science).
Then, the cDNA was used as a template, and Thunderbird Cyber qPCR Mix (manufactured by TOYOBO) and Step One Plus (manufactured by Thermo Fisher Scientific) were used to perform real-time PCR. The reaction conditions were set at 95° C. for 15 seconds and 60° C. for 30 seconds for 40 cycles, and the oligonucleotide primers shown below were used to amplify each target gene.
Note that the expression level of each target gene detected in this way was normalized by the relative quantification method (delta delta Ct method) based on the expression level of 18S ribosomal RNA.

mouse ES cells [6] = experiment: Teratoma formation from pretreated ES cells in NOD/SCID mice; format: in vivo; conditions: ES cells pretreated 2 days with 10 μM BRQ, subcutaneous in NOD/SCID mice, 4 weeks
Method: The viable cells (1×10^6) were suspended in 50 μl of Matrigel (manufactured by BD Biosciences) and injected subcutaneously into the buttocks of 5-8-week-old NOD/SCID mice anesthetized with 10% pentobarbital. Four weeks after the injection, the mice were sacrificed to death, and the tumors were removed and photographed for their size measurement according to the method described in Tsukamoto Y, et al., Stem Cells. 2016; 34(8): 2016-2025. Based on the measurement values obtained, the volume of the tumors was calculated by the following formula.
Volume of tumor (cm^3)=major diameterxminor diameterxminor diameter×½.
Then, 4 weeks after transplantation, the tumors were removed and observed.

[7] = ES cells, 2 days, BRQ 10 μM (ZVAD 100 nM where added)
[8] = mouse ES cells, 10 μM BRQ, 24 hours
[9] = iPS cells, 2 days, BRQ 10 μM (ZVAD 100 nM where added)
[10] = mouse iPS cells, 10 μM BRQ, 24 hours

With `Cc1c(-c2ccc(-c3ccccc3F)cc2)nc2ccc(F)cc2c1C(=O)O` [BRQ, 6-fluoro-2-(2′-fluoro-1,1′-biphenyl-4-yl)-3-methyl-4-quinoline-sodium carboxylate] the “cytotoxic activity (viability, MTT assay)” value [1] was “significant cytotoxic activity”, the “ES cells (Nanog) in mixed culture” value ([2]; ES cell medium) was “lost” and the “cytotoxicity to neural stem cells (Nestin) in mixed culture” value ([2]; mixed with ES cells) was “no obvious cytotoxicity”. The Nanog-positive cells (mouse ES cells [3]; [7]) was 6%, the Oct4-positive cells (mouse ES cells [3]; [7]) was 2% and the “cells in which expression of Sox2 was not observed” value (mouse ES cells [3]; [8]) was “about 30%”. For the same compound, the “inhibition of cell proliferation or cell death” value (mouse ES cells [3]; [8]) was “inhibition of cell proliferation or cell death was already observed”, the “subcellular localization of Nanog” value (mouse ES cells [3]; mouse ES cells, 10 μM BRQ, 2 days) was “distributed in the cytoplasm” and the Nanog-positive cells (mouse iPS cells [4]; [9]) was 0%. The Oct4-positive cells (mouse iPS cells [4]; [9]) was 0%, the “cells in which expression of Sox2 was not observed” value (mouse iPS cells [4]; [10]) was “about 30%” and the “inhibition of cell proliferation or cell death” value (mouse iPS cells [4]; [10]) was “inhibition of cell proliferation or cell death was already observed”. The “subcellular localization of Nanog” value (mouse iPS cells [4]; mouse iPS cells, 10 μM BRQ, 2 days) was “distributed in the cytoplasm”, the “changes in proliferation/death and Sox2 expression” value (mouse neural stem cells) was “no similar changes were observed” and the “expression levels of marker genes (Sox2, Oct4, Nanog)” value (mouse iPS cells [5]) was “generally decreased”. The “tumor formation from pretreated cells” value (mouse ES cells [6]) was “did not proliferate”.
